Measured values reported in patent publication US11400106B2, “Methods for inhibiting microbe growth” (priority 2018, dated 2022).
Where two headings read alike, the source gives them in different places. Marks after values point to notes of the source that are not given here.

Tests used:
[1] = system: S. aureus; test: microbe, parasite or virus in culture; conditions: for MIC: Staphylococcus aureus, 18 h, read-out: MIC, S. aureus, MHB−; for Fold, S. aureus: fold shift in MIC; for effect of 25 mM sodium bicarbonate on antibacterial activity: result in words
Description: (§1) In the following experiments, bacterial cells were cultured in 96-well microtiter plates in cation-adjusted Mueller-Hinton Broth (MHB) for 18 h at 37° C. The main strains used were E. coli (K-12 BW25113) (placed in stationary incubator) and S. aureus (Newman Strain) (incubated at 250 r.p.m). Knockout strains (ΔtolcC and ΔychM) were used from the Keio knockout collection (Baba et al., Construction of Escherichia coli K-12 in-frame, single-gene knockout mutants: the Keio collection. Mol Syst Biol 2, 2006 0008, doi:10.1038/msb4100050 (2006)). For MIC determination and checkerboard analyses, Clinical & Laboratory Standards Institute (CLSI) protocol was used. […] DiSC3 loading of S. aureus cells was performed as previously described (Farha et al., Collapsing the proton motive force to identify synergistic combinations against Staphylococcus aureus. Chemistry & biology 20, 1168-1178, doi:10.1016/j.chembiol.2013.07.006 (2013)). CCCP concentration of 20 μM was used. pH adjustments were made by addition of HCl or NaOH. INT assay and ATP bioluminescence assays were performed as previously described (Farha et al., Collapsing the proton motive force to identify synergistic combinations against Staphylococcus aureus. Chemistry & biology 20, 1168-1178, doi:10.1016/j.chembiol.2013.07.006 (2013)). For chemical-genomic studies, the Keio library was grown overnight in cation-adjusted MHB broth, in 384-well plates. From these, treatment plates (25 mM sodium bicarbonate, or a sterile water control) were inoculated and grown for 15 hours at 37° C., in a stationary incubator. Data was normalized according to Mangat et al (Mangat et al., Rank ordering plate data facilitates data visualization and normalization in high-throughput screening. J Biomol Screen 19, 1314-1320, doi:10.1177/1087057114534298 (2014)), with gene products and GO terms mined from EcoCyc. The GFP promoter library (Keseler et al., EcoCyc: fusing model organism databases with systems biology. Nucleic Acids Res 41, D605-612, doi:10.1093/nar/gks1027 (2013)) was grown for 18 hours at ambient temperature with the same inoculation strategy as with the Keio collection. The analysis pipeline of Zaslaver et al (Zaslaver et al., A comprehensive library of fluorescent transcriptional reporters for Escherichia coli. Nat Methods 3, 623-628, doi:10.1038/nmeth895 (2006)) was used to generate maps of promoter activity, from which lists of promoters with increased or decreased activity were compiled.
(§2) Fold enhancement in MICs in the media supplemented with sodium bicarbonate is represented by a positive fold, whereas suppression of activity is represented by a negative fold.
(§3) The effect of sodium bicarbonate on the activity of additional antibacterial agents was investigated. Clinical isolates of various bacteria were obtained from the ATCC and the IHMA.
(§4) The effect of sodium bicarbonate on the activity of cationic antiseptic agents was investigated. Clinical isolates of various bacteria were obtained from the ATCC and the IHMA.

[2] = system: E. coli; test: microbe, parasite or virus in culture; type: cell-based, Escherichia coli; conditions: for MIC: Escherichia coli
Description: as §1, §2, §3, §4

[3] = 18 h, antibiotic agents, MHB in the absence of sodium bicarbonate, read-out: MIC, E. coli, MHB−
[4] = 18 h, MHB in the absence of sodium bicarbonate, read-out: MIC, E. coli, MHB−
[5] = antiseptic agents, MHB in the absence of sodium bicarbonate
[6] = antiseptic agents, MHB in the presence of 25 mM sodium bicarbonate
[7] = MHB in the presence of 25 mM sodium bicarbonate
[8] = S. aureus (Newman strain) (MSSA)

Row | Molecule | MIC, S. aureus, MHB+ [1] | MIC [1] | MIC, E. coli, MHB+ [2] | MIC [2, 4] | also measured
1 | N[C@@H](C(=O)N[C@@H]1C(=O)N2C(C(=O)O)=C(Cl)CS[C@H]12)c1ccccc1 [Cefaclor] | 8 μg of antimicrobial agent/mL of buffer | 2 µg/mL | 4 μg of antimicrobial agent/mL of buffer |  | MIC [2, 3]: 4 µg/mL
2 | O=C([O-])O.[K+] [Potassium bicarbonate] |  |  |  |  | MIC of dirithromycin in the presence of the salt ([2]; E. coli, salt at 25 mM, pH adjusted to 7.4): 4 µg/mL
3 | CCn1cc(C(=O)O)c(=O)c2cc(F)c(N3CCNCC3)cc21 [Norfloxacin] | 1 | 0.5 µg/mL |  | 0.125 µg/mL | 
4 | CC[C@H]1OC(=O)[C@H](C)[C@@H](O[C@H]2C[C@@](C)(OC)[C@@H](O)[C@H](C)O2)[C@H](C)[C@@H](O[C@@H]2O[C@H](C)C[C@H](N(C)C)[C@H]2O)[C@](C)(O)C[C@@H](C)[C@@H]2N[C@@H](COCCOC)O[C@H]([C@H]2C)[C@]1(C)O [Dirithromycin] | 0.5 | 4 µg/mL |  | 128 µg/mL | MIC ([2]; E. coli, no salt, pH adjusted to 7.4, read-out: MIC of dirithromycin, control): 128 µg/mL
5 | CCCCCCCCCCCCCCCC[N+](C)(C)C.[Br-] [Hexadecyltrimethylammonium bromide] | 0.25 μg of antimicrobial agent/mL of buffer |  | 8 μg of antimicrobial agent/mL of buffer |  | MIC, S. aureus, MHB [1]: 0.5 μg of antimicrobial agent/mL of buffer; MIC, E. coli, MHB [2]: 32 μg of antimicrobial agent/mL of buffer
6 | CCn1cc(C(=O)O)c(=O)c2cc(F)c(N3CCNCC3)nc21 [Enoxacin] | 2 | 1 µg/mL |  | 0.25 µg/mL | 
7 | CCC[C@@H]1C[C@@H](C(=O)N[C@@H]([C@H]2O[C@H](SC)[C@H](O)[C@@H](O)[C@H]2O)[C@H](C)Cl)N(C)C1 [Clindamycin] | 0.12 μg of antimicrobial agent/mL of buffer | 0.25 µg/mL | 128 μg of antimicrobial agent/mL of buffer |  | MIC [2, 3]: 128 µg/mL
8 | CCN1CCN(C(=O)N[C@@H](C(=O)N[C@@H]2C(=O)N3C(C(=O)O)=C(CSc4nnnn4C)CS[C@H]23)c2ccc(O)cc2)C(=O)C1=O [Cefoperazone] | 4 | 0.25 µg/mL |  | 0.125 µg/mL | 
9 | CC[C@H](C)[C@H](N)C(=O)N[C@@H](CC(C)C)C(=O)N1CCC[C@H]1C(=O)N[C@@H](Cc1c[nH]c2ccccc12)C(=O)N[C@@H](CCCCN)C(=O)N[C@@H](Cc1c[nH]c2ccccc12)C(=O)N1CCC[C@H]1C(=O)N[C@@H](Cc1c[nH]c2ccccc12)C(=O)N[C@@H](Cc1c[nH]c2ccccc12)C(=O)N1CCC[C@H]1C(=O)N[C@@H](Cc1c[nH]c2ccccc12)C(=O)N[C@@H](CCCNC(=N)N)C(=O)N[C@@H](CCCNC(=N)N)C(N)=O [Indolicidin] |  |  |  |  | enhancement of antimicrobial activity in the presence of bicarbonate ([1]; S. aureus, 25 mM sodium bicarbonate): 16 fold
10 | Benzalkonium chloride |  |  | 8 μg of antimicrobial agent/mL of buffer |  | MIC, S. aureus, MHB [1, 5]: 0.5 μg of antimicrobial agent/mL of buffer; MIC, S. aureus, MHB+ [1, 6]: 0.25 μg of antimicrobial agent/mL of buffer; Fold, S. aureus ([1]; antiseptic agents): 2; Fold, E. coli [2]: 4; MIC, E. coli, MHB [2]: 32 μg of antimicrobial agent/mL of buffer
11 | CCN1CCN(C(=O)N[C@@H](C(=O)N[C@@H]2C(=O)N3[C@@H]2SC(C)(C)[C@@H]3C(=O)O)c2ccccc2)C(=O)C1=O [Piperacillin] | 1 | 0.25 µg/mL |  | 2 µg/mL | 
12 | CN[C@@H]1[C@H](O)[C@H](NC)[C@H]2O[C@@]3(O)C(=O)C[C@@H](C)O[C@H]3O[C@@H]2[C@H]1O [Spectinomycin] | 8 | 64 µg/mL |  | 16 µg/mL | 
13 | Cc1ncc([N+](=O)[O-])n1CCO [Metronidazole] |  | > 128 µg/mL |  |  | 
14 | CC1CCc2c(N3CCC(O)CC3)c(F)cc3c(=O)c(C(=O)O)cn1c23 (stereo not shown) [Nadifloxacin] | 0.5 μg of antimicrobial agent/mL of buffer | 0.12 µg/mL | 32 μg of antimicrobial agent/mL of buffer |  | MIC [2, 3]: 8 µg/mL
15 | CC(=O)NC[C@H]1CN(c2ccc(N3CCOCC3)c(F)c2)C(=O)O1 [Linezolid] | 0.625 | 0.625 µg/mL |  | 256 µg/mL | effect of 25 mM sodium bicarbonate on antibacterial activity ([1]; S. aureus): remained largely unchanged; effect of 25 mM sodium bicarbonate on antibacterial activity [2]: remained largely unchanged
16 | CN[C@H](CC(C)C)C(=O)N[C@H]1C(=O)N[C@@H](CC(N)=O)C(=O)N[C@H]2C(=O)N[C@H]3C(=O)N[C@H](C(=O)N[C@H](C(=O)O)c4cc(O)cc(O)c4-c4cc3ccc4O)[C@H](O)c3ccc(c(Cl)c3)Oc3cc2cc(c3O[C@@H]2O[C@H](CO)[C@@H](O)[C@H](O)[C@H]2O[C@H]2C[C@](C)(N)[C@H](O)[C@H](C)O2)Oc2ccc(cc2Cl)[C@H]1O [Vancomycin] |  | 1 µg/mL |  |  | MIC, S. aureus, MHB+ [1, 7]: 4; MIC ([2]; 18 h, read-out: MIC, E. coli, MHB−): 256 µg/mL; MIC, E. coli, MHB+ [2, 7]: 256
17 | CC(=O)O[C@H]1C[C@@]2(C)[C@@H](C[C@@H](O)[C@H]3[C@@]4(C)CC[C@@H](O)[C@@H](C)[C@@H]4CC[C@@]32C)/C1=C(\CCC=C(C)C)C(=O)O [Fusidic acid] | 2 μg of antimicrobial agent/mL of buffer | 0.5 µg/mL | >128 μg of antimicrobial agent/mL of buffer |  | MIC [2, 3]: > 128 µg/mL
18 | COc1cc(Cc2cnc(N)nc2N)cc(OC)c1OC [trimethoprim] |  |  |  |  | effect of 25 mM sodium bicarbonate on antibacterial activity ([1]; S. aureus): remained largely unchanged; effect of 25 mM sodium bicarbonate on antibacterial activity [2]: remained largely unchanged
19 | Cc1onc(-c2ccccc2Cl)c1C(=O)N[C@@H]1C(=O)N2[C@@H]1SC(C)(C)[C@@H]2C(=O)O [Cloxacillin] | 0.5 | 0.031 µg/mL |  | 256 µg/mL | 
20 | O=C(O)c1ccc(O)cc1 [p-hydroxybenzoate] |  |  | 64 μg of antimicrobial agent/mL of buffer |  | MIC, S. aureus, MHB [1, 5]: 16 μg of antimicrobial agent/mL of buffer; MIC, S. aureus, MHB+ [1, 6]: 16 μg of antimicrobial agent/mL of buffer; Fold, S. aureus ([1]; antiseptic agents): 1; Fold, E. coli [2]: 1; MIC, E. coli, MHB [2]: 64 μg of antimicrobial agent/mL of buffer
21 | CCn1cc(C(=O)O)c(=O)c2ccc(C)nc21 [Nalidixic acid] | 32 | > 8 µg/mL |  | 2 µg/mL | effect of 25 mM sodium bicarbonate on antibacterial activity [2]: suppressed
22 | CCC[C@@H]1C[C@@H](C(=O)N[C@@H]([C@H]2O[C@H](SC)[C@H](O)[C@@H](O)[C@H]2O)[C@@H](C)O)N(C)C1 [Lincomycin] | 0.0625 μg of antimicrobial agent/mL of buffer | 0.25 µg/mL | 32 μg of antimicrobial agent/mL of buffer |  | MIC [2, 3]: > 128 µg/mL
23 | Lysozyme |  |  |  |  | MIC in MHB [1, 8]: >256** μg/mL; MIC in MHB + 25 mM bicarbonate [1, 8]: >256** μg/mL; effect of 25 mM sodium bicarbonate on antibacterial activity ([2]; E. coli, result in words): enhanced
24 | NC[C@@H]1O[C@H](O[C@H]2[C@@H](O)[C@H](O[C@@H]3[C@@H](O)[C@H](N)C[C@H](N)[C@H]3O[C@H]3O[C@H](CO)[C@@H](O)[C@H](O)[C@H]3N)O[C@@H]2CO)[C@H](N)[C@@H](O)[C@@H]1O [Paromomycin] | 2 | 2 µg/mL |  | 2 µg/mL | 
25 | CC[C@H]1OC(=O)[C@H](C)[C@@H](O[C@H]2C[C@@](C)(OC)[C@@H](O)[C@H](C)O2)[C@H](C)[C@@H](O[C@@H]2O[C@H](C)C[C@H](N(C)C)[C@H]2O)[C@](C)(OC)C[C@@H](C)C(=O)[C@H](C)[C@@H](O)[C@]1(C)O [Clarithromycin] | 0.062 μg of antimicrobial agent/mL of buffer | 0.5 µg/mL | 8 μg of antimicrobial agent/mL of buffer |  | MIC [2, 3]: 64 µg/mL
26 | CC[C@H]1OC(=O)[C@H](C)[C@@H](O[C@H]2C[C@@](C)(OC)[C@@H](O)[C@H](C)O2)[C@H](C)[C@@H](O[C@@H]2O[C@H](C)C[C@H](N(C)C)[C@H]2O)[C@](C)(O)C[C@@H](C)C(=O)[C@H](C)[C@@H](O)[C@]1(C)O [Erythromycin] | 1 | 32 µg/mL |  |  | 
